Source: patent US20250163048A1 (Tango Therapeutics, Inc., priority 2022, published 2025)
Read-outs that look alike come from different tables or passages of the source.

Key:
MTAP-deleted cell line = test: viability assay for the MTAP-deleted cell line; type: cell-based
[1] = tested on: HAP1 MTAP-intact cell line; test: SDMA in-cell western assay, HAP1 MTAP-intact
[2] = tested on: HAP1 MTAP-deleted cell line; test: SDMA in-cell western assay, HAP1 MTAP-deleted; conditions: for Hap1 MTAP intact/deleted ratio: IC50 ratio between HAP1 MTAP-intact and HAP1 MTAP-deleted cell line
[3] = Homo sapiens, HAP1, viability assay
[4] = Homo sapiens, HAP1, read-out: Hap1 MTAP intact IC50, SDMA in-cell western assay, HAP1 MTAP-intact cell line
[5] = Homo sapiens, HAP1, read-out: Hap1 MTAP deleted IC50, SDMA in-cell western assay, HAP1 MTAP-deleted cell line
[6] = Homo sapiens, HAP1, read-out: Hap1 MTAP deleted IC90, SDMA in-cell western assay, HAP1 MTAP-deleted cell line
[7] = Homo sapiens, HAP1, read-out: Hap1 MTAP intact IC50, SDMA in-cell western, HAP1 MTAP-intact cell line
[8] = Homo sapiens, HAP1, read-out: Hap1 MTAP deleted IC50, SDMA in-cell western, HAP1 MTAP-deleted cell line
[9] = Homo sapiens, HAP1, read-out: Hap1 MTAP deleted IC90, SDMA in-cell western, HAP1 MTAP-deleted cell line
[10] = viability assay, read-out: Hap1 MTAP deleted viability IC50
[11] = read-out: Hap1 MTAP intact IC50, SDMA in-cell western, HAP1 MTAP-intact cell line
[12] = read-out: Hap1 MTAP deleted IC50, SDMA in-cell western, HAP1 MTAP-deleted cell line
[13] = read-out: Hap1 MTAP deleted IC90, SDMA in-cell western, HAP1 MTAP-deleted cell line

Row | Structure (SMILES) | IC50 (MTAP-deleted cell line; [3]) [nM] | IC50 [1, 4] [nM] | IC50 [2, 5] [nM] | IC90 [2, 6] [nM] | Hap1 MTAP intact/deleted ratio ([2]; SDMA in-cell western assay) | IC50 [1, 7] [nM] | IC50 [2, 8] [nM] | IC90 [2, 9] [nM] | Hap1 MTAP intact/deleted ratio ([2]; SDMA in-cell western) | IC50 (MTAP-deleted cell line; [10]) [nM] | IC50 [1, 11] [nM] | IC50 [2, 12] [nM] | IC90 [2, 13] [nM]
1 | C[C@H]1CC[C@H](c2ccc3c(c2)CCN(C)C3)N(C(=O)C(=O)Nc2cnc(N)c3cn[nH]c23)C1 (racemic) [Compound 265, N-(4-Amino-1H-pyrazolo[4,3-c]pyridin-7-yl)-2-oxo-2-[rac-(2R,5S)-5-methyl-2-(2-methyl-3,4-dihydro-1H-isoquinolin-6-yl)-1-piperidyl]acetamide] | < 100 | 5 to 50 | < 5 | < 75 | C (“C” indicates an IC50 ratio of less than 15 fold) |  |  |  |  |  |  |  | 
2 | CC[C@@H]1CC[C@@H](C)N(C(=O)C(=O)Nc2cnc(N)c3cn[nH]c23)C1 (racemic) [Compound 269, N-(4-Amino-1H-pyrazolo[4,3-c]pyridin-7-yl)-2-oxo-2-[rac-(2R,5R)-5-ethyl-2-methyl-1-piperidyl]acetamide] | 100 to 1000 | > 50 | 5 to 50 | > 125 | A (“A” indicates an IC50 ratio greater than or equal to 30 fold) |  |  |  |  |  |  |  | 
3 | C[C@@H]1CCC[C@H](c2ccccc2)N1C(=O)C(=O)Nc1cnc(N)c2cn[nH]c12 (racemic) [Compound 270, N-(4-Amino-1H-pyrazolo[4,3-c]pyridin-7-yl)-2-oxo-2-[rac-(2R,6R)-2-methyl-6-phenyl-1-piperidyl]acetamide] | < 100 | > 50 | < 5 | < 75 | A (“A” indicates an IC50 ratio greater than or equal to 30 fold) |  |  |  |  |  |  |  | 
4 | C[C@H]1CC[C@H](c2cccc3c2CCO3)N(C(=O)C(=O)Nc2cnc(N)c3cn[nH]c23)C1 (racemic) [Compound 282, N-(4-Amino-1H-pyrazolo[4,3-c]pyridin-7-yl)-2-oxo-2-[rac-(2R,5S)-2-(2,3-dihydrobenzofuran-4-yl)-5-methyl-1-piperidyl]acetamide] | < 100 | 5 to 50 | < 5 | < 75 | A (“A” indicates an IC50 ratio greater than or equal to 30 fold) |  |  |  |  |  |  |  | 
5 | C[C@H]1CC[C@H](c2ccc3sc([C@H]4CCCN(C)C4)nc3c2)N(C(=O)C(=O)Nc2cncc3c(N)nccc23)C1 (relative stereo) [Compound 10, N-(8-amino-2,7-naphthyridin-4-yl)-2-oxo-2-[(2R,5S)-5-methyl-2-[2-[rel-(3S)-1-methyl-3-piperidyl]-1,3-benzothiazol-5-yl]-1-piperidyl]acetamide] | < 100 |  |  |  |  | > 50 | < 5 | < 75 | A (“A” indicates an IC50 ratio greater than or equal to 30 fold) |  |  |  | 
6 | C[C@H]1CC[C@H](c2ccc3sc([C@@H]4CCN(C)C[C@@H]4C)nc3c2)N(C(=O)C(=O)Nc2cncc3cn[nH]c23)C1 (relative stereo) [Compound 12, 2-oxo-N-(1H-pyrazolo[4,3-c]pyridin-7-yl)-2-[(2R,5S)-5-methyl-2-[2-[rel-(3R,4R)-1,3-dimethyl-4-piperidyl]-1,3-benzothiazol-5-yl]-1-piperidyl]acetamide] | < 100 |  |  |  |  | > 50 | < 5 | < 75 | B (“B” indicates an IC50 ratio greater than or equal to 15 fold but lower than 30 fold) |  |  |  | 
7 | C[C@@H]1CC[C@@H](c2ccc3cn(C)nc3c2)N(C(=O)C(=O)Nc2cncc3cn[nH]c23)C1 (relative stereo) [Compound 13, 2-[rel-(2S,5R)-5-methyl-2-(2-methylindazol-6-yl)-1-piperidyl]-2-oxo-N-(1H-pyrazolo[4,3-c]pyridin-7-yl)acetamide] | 100 to 1000 |  |  |  |  | > 50 | 5 to 50 | 75 to 125 | B (“B” indicates an IC50 ratio greater than or equal to 15 fold but lower than 30 fold) |  |  |  | 
8 | C[C@H]1CC[C@H](c2ccc3sc([C@H]4CCN(C)C[C@@H]4C)nc3c2)N(C(=O)C(=O)Nc2ccn3ccnc3c2)C1 (relative stereo) [Compound 48, N-imidazo[1,2-a]pyridin-7-yl-2-oxo-2-[(2R,5S)-5-methyl-2-[2-[rel-(3R,4S)-1,3-dimethyl-4-piperidyl]-1,3-benzothiazol-5-yl]-1-piperidyl]acetamide] | < 100 |  |  |  |  | > 50 | < 5 | < 75 | A (“A” indicates an IC50 ratio greater than or equal to 30 fold) |  |  |  | 
9 | C[C@H]1CC[C@H](c2ccc3sc([C@H]4CCN(C)C[C@H]4C)nc3c2)N(C(=O)C(=O)Nc2ccn3ccnc3c2)C1 (relative stereo) [Compound 58, N-imidazo[1,2-a]pyridin-7-yl-2-oxo-2-[(2R,5S)-5-methyl-2-[2-[rel-(3S,4S)-1,3-dimethyl-4-piperidyl]-1,3-benzothiazol-5-yl]-1-piperidyl]acetamide] | < 100 |  |  |  |  | > 50 | < 5 | < 75 | A (“A” indicates an IC50 ratio greater than or equal to 30 fold) |  |  |  | 
10 | C[C@H]1CC[C@H](c2ccc3sc([C@@H]4CCN(C)C[C@H]4C)nc3c2)N(C(=O)C(=O)Nc2cncc3cn[nH]c23)C1 (relative stereo) [Compound 71, 2-oxo-N-(1H-pyrazolo[4,3-c]pyridin-7-yl)-2-[(2R,5S)-5-methyl-2-[2-[rel-(3S,4R)-1,3-dimethyl-4-piperidyl]-1,3-benzothiazol-5-yl]-1-piperidyl]acetamide] | < 100 |  |  |  |  | 5 to 50 | < 5 | < 75 | C (“C” indicates an IC50 ratio of less than 15 fold) |  |  |  | 
11 | C[C@H]1CC[C@H](c2ccc3sc([C@@H](C)CN(C)C)nc3c2)N(C(=O)C(=O)Nc2cncc3c(N)nccc23)C1 (relative stereo) [Compound 76, N-(8-amino-2,7-naphthyridin-4-yl)-2-((2R,5S)-2-(2-((S)-1-(dimethylamino)propan-2-yl)benzo[d]thiazol-5-yl)-5-methylpiperidin-1-yl)-2-oxoacetamide] | < 100 |  |  |  |  | > 50 | 5 to 50 | < 75 | A (“A” indicates an IC50 ratio greater than or equal to 30 fold) |  |  |  | 
12 | C[C@H]1CC[C@H](c2ccc3sc([C@H](C)CN(C)C)nc3c2)N(C(=O)C(=O)Nc2cncc3c(N)nccc23)C1 (relative stereo) [Compound 99, N-(8-amino-2,7-naphthyridin-4-yl)-2-((2R,5S)-2-(2-((R)-1-(dimethylamino)propan-2-yl)benzo[d]thiazol-5-yl)-5-methylpiperidin-1-yl)-2-oxoacetamide] | < 100 |  |  |  |  | > 50 | < 5 | < 75 | A (“A” indicates an IC50 ratio greater than or equal to 30 fold) |  |  |  | 
13 | C[C@H]1CC[C@H](c2ccc3sc([C@H]4CCN(C)C[C@H]4C)nc3c2)N(C(=O)C(=O)Nc2cncc3cn[nH]c23)C1 (relative stereo) [Compound 106, 2-oxo-N-(1H-pyrazolo[4,3-c]pyridin-7-yl)-2-[(2R,5S)-5-methyl-2-[2-[rel-(3S,4S)-1,3-dimethyl-4-piperidyl]-1,3-benzothiazol-5-yl]-1-piperidyl]acetamide] |  |  |  |  |  |  |  |  | C (“C” indicates an IC50 ratio of less than 15 fold) | < 100 | 5 to 50 | < 5 | < 75
14 | C[C@H]1CC[C@H](c2ccc3sc([C@@H]4CCN(C)C4)nc3c2)N(C(=O)C(=O)Nc2cncc3cn[nH]c23)C1 (single isomer, unassigned) [Compound 2] | < 100 |  |  |  |  | 5 to 50 | < 5 | < 75 | C (“C” indicates an IC50 ratio of less than 15 fold) |  |  |  | 
15 | CO[C@@H]1C[C@@H](c2ccc(F)cc2)N(C(=O)C(=O)Nc2cnc(N)c3cn[nH]c23)C[C@@H]1C (single isomer, unassigned) [Compound 7] | < 100 |  |  |  |  | 5 to 50 | < 5 | < 75 | B (“B” indicates an IC50 ratio greater than or equal to 15 fold but lower than 30 fold) |  |  |  | 
16 | C[C@H]1CC[C@H](c2ccc3sc(CCN(C)C)nc3c2)N(C(=O)C(=O)Nc2ccn3ccnc3c2)C1 (single isomer, unassigned) [Compound 16, 2-(2-(2-(2-(dimethylamino)ethyl)benzo[d]thiazol-5-yl)-5-methylpiperidin-1-yl)-N-(imidazo[1,2-a]pyridin-7-yl)-2-oxoacetamide] | < 100 |  |  |  |  | > 50 | < 5 | < 75 | A (“A” indicates an IC50 ratio greater than or equal to 30 fold) |  |  |  | 
17 | C[C@H]1CC[C@H](c2ccc3nn(C4CCN(C)C(C)(C)C4)cc3c2)N(C(=O)C(=O)Nc2cncc3cn[nH]c23)C1 (single isomer, unassigned) [Compound 20] |  |  |  |  |  |  |  |  | C (“C” indicates an IC50 ratio of less than 15 fold) | < 100 | 5 to 50 | < 5 | < 75
